Consider 10 compounds from ChEMBL document CHEMBL1201862, “PubChem BioAssay data set” (2004).

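48-hour exposure; five concentrations; linearly interpolated endpoints. GI50: concentration for 50% inhibition of growth.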 Calls of active or inactive are those of the source. Cut-off read from the data, not from the text of the source: active = GI50 up to about 1.1 µM and inactive = higher.

Test systems include ACHN; CAKI-1; HL-60; KM12; MDA-MB-231; MDA-MB-435; MDA-N; Malme-3M; NCI-H226; NCI-H23; NCI-H522; NCI/ADR-RES; SF-539; SK-MEL-28; SK-MEL-2; SK-OV-3; SNB-19; TK-10; U-251; UO-31.
Common to all, as to assay: NCI-60 cell line screen, 48 h

Consider `CC(C)(C)C#CI1OC(=O)c2ccccc21`, for which the GI50 was 2.9 µM (inactive) in the assay on ACHN; 3.11 µM (inactive) in the assay on CAKI-1; 0.513 µM (active) with HL-60; 6.85 µM (inactive) with KM12; 5.94 µM (inactive) with MDA-MB-231; 3.72 µM (inactive) in the assay with MDA-MB-435. The GI50 in the assay with MDA-N was 4.17 µM (inactive); with Malme-3M, 3.03 µM (inactive); in the assay on NCI-H226 it was 4.63 µM (inactive); in the assay with NCI-H23, 3.48 µM (inactive); in the assay with NCI-H522 it was 1.76 µM (inactive); in the assay on NCI/ADR-RES, 5.52 µM (inactive). Also, the GI50 is 2.82 µM (inactive) in the assay with SF-539; 4.34 µM (inactive) with SK-MEL-28; 10.7 µM (inactive) with SK-MEL-2; 11.4 µM (inactive) with SK-OV-3; 9.27 µM (inactive) in the assay on SNB-19; 3.86 µM (inactive) in the assay with TK-10. The GI50 in the assay with U-251 was 4.84 µM (inactive); in the assay on UO-31 it was 4.41 µM (inactive).

On to `Cc1cc(=O)oc2c(CNC(CC(C)C)C(=O)O)c(O)ccc12` (stereo not given), for which the GI50 in the assay with ACHN, in the assay on CAKI-1, in the assay with HL-60, in the assay with KM12, with MDA-MB-231 and in the assay with MDA-MB-435 was > 100 µM (inactive) in each case. In addition, the GI50 was > 100 µM (inactive) with MDA-N; 87.5 µM (inactive) with Malme-3M; > 100 µM (inactive) in the assay with NCI-H226; > 100 µM (inactive) with NCI-H23; > 100 µM (inactive) with NCI-H522; > 100 µM (inactive) with NCI/ADR-RES. The GI50 in the assay with SF-539, in the assay with SK-MEL-28, in the assay with SK-MEL-2, in the assay with SK-OV-3, in the assay on SNB-19 and in the assay on TK-10 was > 100 µM (inactive) in each case. Besides, the GI50 in the assay on U-251 and with UO-31 was > 100 µM (inactive) each time.

For the compound `COc1ccccc1NC(=S)N/N=C/c1ccccn1`, the GI50 was 0.11 µM (active) with ACHN; 0.0817 µM (active) in the assay on CAKI-1; 0.0214 µM (active) in the assay with HL-60; 0.597 µM (active) in the assay with KM12; < 0.0166 µM (active) in the assay with MDA-MB-231; 1.61 µM (inactive) with MDA-MB-435. The GI50 in the assay with MDA-N is 1.29 µM (inactive); with Malme-3M, 0.193 µM (active); in the assay with NCI-H226, 2.12 µM (inactive); with NCI-H23, 0.0746 µM (active); with NCI-H522, < 0.0157 µM (active); in the assay on NCI/ADR-RES, 0.0253 µM (active). The GI50 in the assay on SF-539 was 0.91 µM (active); with SK-MEL-28 it was 1.56 µM (inactive); in the assay on SK-MEL-2 it was 2.54 µM (inactive); in the assay with SK-OV-3, 0.446 µM (active); with SNB-19, 4.17 µM (inactive); in the assay on TK-10, 0.367 µM (active). Moreover, the results for the GI50 in the assay on U-251 and in the assay with UO-31 were 0.12 µM (active) and 0.296 µM (active), respectively.

On to `NC(=O)c1ccc(S(=O)(=NS(=O)(=O)c2ccccc2)c2ccc(C(N)=O)cc2)cc1`, for which the GI50 with ACHN, in the assay on CAKI-1, in the assay with HL-60, in the assay on KM12, with MDA-MB-231 and in the assay with MDA-MB-435 was > 100 µM (inactive) in each case. Besides, the GI50 in the assay on MDA-N, in the assay on Malme-3M, in the assay with NCI-H226, in the assay on NCI-H23, with NCI-H522 and with NCI/ADR-RES was > 100 µM (inactive) throughout. Further, the GI50 in the assay on SF-539, in the assay on SK-MEL-28, in the assay with SK-MEL-2, in the assay on SK-OV-3, in the assay on SNB-19 and in the assay on TK-10 was > 100 µM (inactive) each time. Moreover, the GI50 in the assay with U-251 and in the assay on UO-31 was > 100 µM (inactive) each time.

Turning to `CN(C)CCCNC(=O)CCNC(=O)c1cc(NC(=O)c2cc(NC(=O)c3cc(NC(=O)c4nc(NC(=O)CCCNC(=O)c5cc(NC(=O)c6cc(NC(=O)c7cc(NC(=O)c8nccn8C)cn7C)cn6C)cn5C)cn4C)cn3C)cn2C)cn1C`, the GI50 with ACHN was > 100 µM (inactive); in the assay on CAKI-1, > 100 µM (inactive); in the assay on HL-60, > 100 µM (inactive); in the assay on KM12 it was 73.5 µM (inactive); with MDA-MB-231, > 100 µM (inactive); in the assay on MDA-MB-435, > 100 µM (inactive). Also, the GI50 in the assay with MDA-N, in the assay on Malme-3M, in the assay with NCI-H226, in the assay with NCI-H23, in the assay with NCI-H522 and with NCI/ADR-RES was > 100 µM (inactive) each time. Besides, the GI50 with SF-539, in the assay with SK-MEL-28, in the assay with SK-MEL-2, in the assay on SK-OV-3, in the assay on SNB-19 and with TK-10 was > 100 µM (inactive) each time. The GI50 with U-251 and with UO-31 was > 100 µM (inactive) in each case.

Turning to `CCC1(OC(=O)CNC)C(=O)OCc2c1cc1n(c2=O)Cc2cc3ccccc3nc2-1` (stereo not given), the GI50 was < 0.01 µM (active) with ACHN; < 0.01 µM (active) with CAKI-1; < 0.01 µM (active) in the assay on HL-60; 0.0685 µM (active) in the assay on KM12; 0.31 µM (active) with MDA-MB-231; 0.0234 µM (active) with MDA-MB-435. For the same compound, the GI50 in the assay with MDA-N was 0.0419 µM (active); in the assay on Malme-3M, 0.0543 µM (active); in the assay on NCI-H226 it was < 0.01 µM (active); with NCI-H23, < 0.01 µM (active); in the assay on NCI-H522, < 0.0116 µM (active); with NCI/ADR-RES it was < 0.01 µM (active). Moreover, the GI50 with SF-539 is < 0.01 µM (active); in the assay on SK-MEL-28, 0.213 µM (active); in the assay with SK-MEL-2, 0.155 µM (active); in the assay with SK-OV-3, < 0.01 µM (active); in the assay with SNB-19 it was < 0.01 µM (active); with TK-10, 1.29 µM (inactive). Also, the GI50 in the assay on U-251 was < 0.01 µM (active); in the assay on UO-31, < 0.0125 µM (active).

As to `COC(=O)[C@]1(c2cc3ccccc3n2S(=O)(=O)c2ccccc2)CC2CCC1NC2` (stereo not given in full), the GI50 in the assay on ACHN was 21.7 µM (inactive); with CAKI-1, 15.5 µM (inactive); with HL-60, 2.85 µM (inactive); in the assay on KM12, 15.1 µM (inactive); with MDA-MB-231, 14.1 µM (inactive); in the assay with MDA-MB-435, 14.2 µM (inactive). The GI50 is 14.7 µM (inactive) in the assay with MDA-N; 14.9 µM (inactive) in the assay on Malme-3M; 14.6 µM (inactive) in the assay with NCI-H226; 15.2 µM (inactive) in the assay on NCI-H23; 14.3 µM (inactive) in the assay on NCI-H522; 16.6 µM (inactive) in the assay on NCI/ADR-RES. Moreover, the GI50 in the assay on SF-539 was 16.4 µM (inactive); with SK-MEL-28, 16.8 µM (inactive); in the assay with SK-MEL-2, 16.7 µM (inactive); with SK-OV-3, 16.7 µM (inactive); in the assay with SNB-19, 14.8 µM (inactive); in the assay with TK-10 it was 31.8 µM (inactive). For the same compound, the GI50 was 13.6 µM (inactive) in the assay with U-251 and 10.5 µM (inactive) in the assay on UO-31.

Take `COc1cccc(C2SCC(=O)N2c2ccc(-n3c(-c4ccccc4)nc4ccccc4c3=O)cc2)c1OC` (stereo not given): the GI50 with ACHN, in the assay on CAKI-1, in the assay with HL-60, in the assay on KM12, in the assay with MDA-MB-231 and with MDA-MB-435 was > 100 µM (inactive) in each case. The GI50 in the assay on MDA-N was > 100 µM (inactive); in the assay with Malme-3M, > 100 µM (inactive); in the assay on NCI-H226 it was > 87.9 µM (inactive); with NCI-H23 it was > 100 µM (inactive); with NCI-H522, > 100 µM (inactive); in the assay on NCI/ADR-RES it was > 100 µM (inactive). The GI50 with SF-539, in the assay on SK-MEL-28, in the assay on SK-MEL-2, in the assay with SK-OV-3, with SNB-19 and with TK-10 was > 100 µM (inactive) in each case. For the same compound, the GI50 is > 100 µM (inactive) in the assay on U-251 and > 43.7 µM (inactive) in the assay with UO-31.

With `CCCCCCCC/C=C\CCCCCCC/C=C1/C[C@](/C=C/C(=O)OC)(CO)OC1=O`, the GI50 with ACHN was 3.11 µM (inactive); in the assay with CAKI-1, 1.29 µM (inactive); in the assay on HL-60, 1.63 µM (inactive); in the assay on KM12 it was 10.9 µM (inactive); in the assay on MDA-MB-231 it was 3.99 µM (inactive); with MDA-MB-435, 0.904 µM (active). Moreover, the GI50 was 0.773 µM (active) with MDA-N; 2.15 µM (inactive) in the assay with Malme-3M; 5.14 µM (inactive) in the assay on NCI-H226; 11.2 µM (inactive) in the assay on NCI-H23; 5.6 µM (inactive) in the assay with NCI-H522; 10.4 µM (inactive) with NCI/ADR-RES. Besides, the GI50 in the assay on SF-539 was 1.01 µM (active); in the assay on SK-MEL-28, 2.77 µM (inactive); in the assay on SK-MEL-2, 13.5 µM (inactive); with SK-OV-3, 10.9 µM (inactive); in the assay on SNB-19, 7.16 µM (inactive); with TK-10, 2.68 µM (inactive). Further, the GI50 was 6.03 µM (inactive) in the assay with U-251 and 1.77 µM (inactive) in the assay with UO-31.

Regarding `CN(C)c1ccc(/C=C(\NC(=O)c2ccccc2)C(=O)Nc2ccccc2C(=O)NCc2ccccc2)cc1`, the GI50 in the assay on ACHN was > 100 µM (inactive); in the assay with CAKI-1, > 100 µM (inactive); in the assay on HL-60, 40.6 µM (inactive); in the assay on KM12, 58.5 µM (inactive); in the assay on MDA-MB-231, > 100 µM (inactive); in the assay with MDA-MB-435, > 100 µM (inactive). For the same compound, the GI50 in the assay on MDA-N was > 100 µM (inactive); in the assay with Malme-3M, > 100 µM (inactive); in the assay on NCI-H226 it was 50.8 µM (inactive); with NCI-H23, > 100 µM (inactive); in the assay with NCI-H522 it was 27.6 µM (inactive); with NCI/ADR-RES, 43.1 µM (inactive). Moreover, the GI50 with SF-539 was 66.5 µM (inactive); in the assay with SK-MEL-28 it was > 100 µM (inactive); in the assay with SK-MEL-2 it was > 100 µM (inactive); with SK-OV-3, > 100 µM (inactive); with SNB-19, 85.5 µM (inactive); with TK-10, > 100 µM (inactive). Besides, the figures for the GI50 in the assay with U-251 and with UO-31 were 46.8 µM (inactive) and > 100 µM (inactive), respectively.
